Data from patent US7919117B2, “Transdermal delivery of (R)-3,3-diphenylpropylamin-monoestern” (UCB Pharma GmbH, priority 2003, dated 2011).
Values belong to the molecule of their own block, whether it stands above or below them.

Assays:
[1] = Stabilization of fesoterodine in various matrices during storage (drop in concentration); format: physicochemical; details: storage for 6 months at 5° C.
Experimental: While, for example, the free base of fesoterodine is decomposed as an oil after storage for 6 months at 5° C. to around 3-4% a drop in concentration cannot be established or can only be established essentially to a lesser extent when fesoterodine is incorporated in matrices, which contain polar components.

[2] = Stability at processing temperatures in the hot melt procedure; format: physicochemical; details: processing temperatures up to 200° C.
Excerpt: In a hot melt procedure the polymers and any auxiliary agents are thermally melted and mixed without the use of any solvents and the meltings spread out on foil. The active ingredient is normally introduced directly into the liquid melt. […] The dynamic viscosity may be determined in the process as described in U.S. Pat. No. 5,328,696.
An alternative procedure that dispenses with the use of organic solvents is the hot melt procedure. In this procedure the polymer or the contact adhesive are melted at temperatures between 70 and 200° C., preferably between 90 and 160° C. and especially preferably between 100 and 150° C. and the active ingredient introduced into the homogenized matrix melt. After a brief homogenization the adhesive matrix that contains the active ingredient is cooled again so that the active ingredient is exposed to a thermal load in general for less than 5 minutes, if desired even for 4, 3, 2 or even for less than 1 minute. Following this the active ingredient is present in the solidified polymer melt. During the process the active ingredient is broadly shielded from critical environmental influences (light, oxygen).

[3] = Flow of active ingredient in the mouse skin model (in-vitro flux, horizontal diffusion cell); format: in vitro ADME; details: salt introduced into the polymer layer, also with oleic acid etc. (Table 1)
Experimental: 3.1. Determination of the Flow of Active Ingredient in the Mouse Skin Model Belly and back skin in a thickness of approximately 120 to 150 μm was used in a horizontal diffusion cell for the flux measurements through mouse skin. Medium: phosphate buffer solution (0.066 molar) pH 6.2, 32° C. Release of the active ingredient was determined by HPLC.

[4] = Flow of active ingredient in the human skin model according to Tanojo (in-vitro flux); format: in vitro ADME; details: see Table 1
Excerpt: 3.2. Determination of the Flow of Active Ingredient in the Human Skin Model (a) experimental Design The determination of the fesoterodine flux through human skin was essentially performed as described in H. Tanojo et al, J. Control Rel. 45 (1997) 41-47, where instead of the silicone membrane a dialysis membrane was used [[…] Dialysemembran, type 10. 14, obtained from the company Dianorm, Munich, Germany, manufactured from neutral cellulose, exclusion size 5000 Da, thickness (dry): 25 μm; pretreatment in accordance with manufacturer information]. Human skin in a thickness of approximately 250 μm was obtained from the abdomen. A TTS with a surface of 2.545 cm^2 was applied on human skin of equal surface size, where the skin on the acceptor site lays on a […] membrane (FIG. 5). PBS (0.066 molar) was used as the acceptor phase at pH 6.2 and a temperature of 32±0.5° C. The experiments were performed over 72 hours with a 5 ml/hour flux, whereby samples were taken every 3 hours. At the times that the samples are taken, the releasing medium is replaced with fresh medium thermo stated at 32±0.5° C. and the amount of the released fesoterodine measured per HPLC. […]

Decomposition of the free base stored as an oil [1]: 3-4% | stability at hot melt processing temperatures (in words) [2]: surprisingly stable
Compound: CC(C)C(=O)Oc1ccc(CO)cc1[C@H](CCN(C(C)C)C(C)C)c1ccccc1 [fesoterodine, (R)-2-[3-(1,1-diisopropylamino)-1-phenylpropyl]-4-(hydroxymethyl)phenyl isobutyrate]

Compound: CC(C)C(=O)Oc1ccc(CO)cc1[C@H](CCN(C(C)C)C(C)C)c1ccccc1.O=C(O)/C=C/C(=O)O [fumarate salt from fesoterodine, (R)-2-[3-(1,1-diisopropylamino)-1-phenylpropyl]-4-(hydroxymethyl)phenyl isobutyrate hydrogen fumarate]
flux rates (in words) [3]: flux rates not sufficient for transdermal treatment

Compound: CC(C)N(CCC(c1ccccc1)c1cc(CO)ccc1O)C(C)C (stereo not shown) [2-[3-(1,1-diisopropylamino)-1-phenylpropyl]-4-(hydroxymethyl)phenol]
rate of penetration through the human skin (in words) [4]: very low rate of penetration
